Four compounds from article PMC3375898 (Natural Product Communications, 2011) can be followed below.

Common to all, as to type: cell-based
Data set [1] deals with MCF-7 human breast cancer cells. The data set can be described thus: Cancer bioassay, cytotoxicity by NCI protocol.
Data set [2] concerns chloroquine-resistant strain (Indochina W2) of P. falciparum. The data set can be described thus: Malaria bioassay, PicoGreen fluorometric antiplasmodial assay. The conditions noted are these: Plasmodium falciparum.
In data set [3] the test system is recombinant Tulahuen clone C4 of T. cruzi, intracellular amastigotes in Vero cells. The data set can be described thus: Chagas' disease bioassay, beta-galactosidase colorimetric assay. The conditions noted are these: Trypanosoma cruzi, 120 h, read-out: IC50 T. cruzi.
The nature of data set [4]: Mammalian cell cytotoxicity bioassay. The note with it: African green monkey, Vero cells (kidney).

Where two headings read alike, the source gives them in different places.

Take `COc1cccc2c1C(=O)c1c(O)c3c(c(O)c1C2=O)C[C@@](O)(C(=O)CO)C[C@@H]3O[C@H]1C[C@H](N)[C@H](O)[C@H](C)O1` [Adriamycin, reference compound]: the IC50 (in general, the concentration needed to halve the response being measured) in data set [1] (MCF7, read-out: IC50 MCF-7, positive control) lay within 2e-05 to 0.0003 µM.

`CCN(CC)CCCC(C)Nc1ccnc2cc(Cl)ccc12` (stereo not shown) [Chloroquine, reference compound]: the IC50 in data set [2] (W2, read-out: IC50 P. falciparum, positive control) fell in the range of 0.08 to 0.1 µM.

In the case of `COc1c(CC(C)O)c2c3c(CC(C)O)c(OC)c(=O)c4c(O)cc5c(c6c(cc(O)c(c1=O)c62)OCO5)c43` (stereo not shown) [Compound 1, cercosporin], the IC50 came to 1.03 ± 0.03 µM in data set [2] (W2, read-out: IC50 P. falciparum); 1.08 ± 0.03 µM in data set [3]; 4.68 ± 0.2 µM in data set [1] (MCF7, read-out: IC50 MCF-7). Moreover, half-maximal inhibition in data set [4] (IC50 at 4 h) was put at 1.54 ± 0.1 µM.

For `CC1CS(=O)(=O)CCN1/N=C/c1ccc([N+](=O)[O-])o1` (stereo not shown) [Nifurtimox, reference compound], in data set [3], the IC50 was 10 to 16 µM.
